Where two headings read alike, the source gives them in different places. Each block holds one compound with its values, some of them ahead of it.
Tests used:
Type in all cases: cell-based
lipoxygenase [1] = test: Activity of inhibiting lipoxygenase production in human whole blood (Table 1-1); settings: A23187 25 μM, 15 min
Procedure: Evaluation of activity of inhibiting lipoxygenase production in human whole blood Into 2 ml of a heparin-treated vein blood of a healthy person without administration of a drug was added 2 μl of the DMSO solution containing the test sample of the sulfide ketone derivative listed in Table 1-1 as the drug to be tested (final 10^-5 M). After treatment at 37° C. for 5 minutes, 10 μl of a DMSO solution of A23187 was added (final 25 μM) to carry out the treatment at 37° C. for 15 minutes, followed by ice-cooling. As the internal standard substance for quantitation, 10 μl of a DMSO solution of 100 ng of 15-HETE was added, and then 0.8 ml of acetonitrile was added and the precipitates formed were removed by centrifugation. LTB4, 5-HETE, 12-HETE in the supernatant were separated and quantitated. The results are shown in Table 1-1 as the lipoxygenase production inhibitory ratio. | *For only this compound, the results are shown in "× 10^-4

lipoxygenase [2] = target: T1, lipoxygenase (Rattus norvegicus, UniProt P12527); test: Activity of inhibiting lipoxygenase production in basophilic leukemia (RBL-1) cells (Table 3-2); settings: 0.25 h, arachidonic acid 50 μg, A23187 25 μM, read-out: Inhibitory ratio (%) LTB4; for inhibition at 1 µM: 10^-6 M; for inhibition at 0.1 µM: 10^-7 M
T1 construct: A 5×10^6 amount cells of RBL-1 were used; endogenous in cells; host or cells: RBL-1 (basophilic leukemia cells)
T1 sequence (P12527 1-673): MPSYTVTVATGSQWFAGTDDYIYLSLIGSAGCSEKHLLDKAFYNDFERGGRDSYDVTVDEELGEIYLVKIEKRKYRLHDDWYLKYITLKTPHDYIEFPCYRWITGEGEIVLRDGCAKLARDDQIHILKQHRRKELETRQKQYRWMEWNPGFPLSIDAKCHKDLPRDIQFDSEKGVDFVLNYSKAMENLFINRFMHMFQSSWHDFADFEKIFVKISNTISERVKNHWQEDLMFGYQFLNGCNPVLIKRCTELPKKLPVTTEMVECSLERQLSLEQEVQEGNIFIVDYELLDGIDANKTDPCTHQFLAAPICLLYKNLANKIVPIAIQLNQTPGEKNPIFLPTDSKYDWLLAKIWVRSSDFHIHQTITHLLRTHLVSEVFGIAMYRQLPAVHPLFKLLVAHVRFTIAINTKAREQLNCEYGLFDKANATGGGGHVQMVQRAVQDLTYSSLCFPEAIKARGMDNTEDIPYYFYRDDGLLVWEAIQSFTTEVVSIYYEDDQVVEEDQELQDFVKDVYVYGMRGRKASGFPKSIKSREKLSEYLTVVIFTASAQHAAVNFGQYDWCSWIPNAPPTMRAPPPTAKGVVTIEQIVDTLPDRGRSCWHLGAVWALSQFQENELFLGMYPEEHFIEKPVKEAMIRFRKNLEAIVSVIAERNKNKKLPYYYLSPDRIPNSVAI
Procedure: Evaluation of activity of inhibiting lipoxygenase production […] (RBL-1) cells
A 5×10^6 amount cells of RBL-1 were used and the DMSO solution of each compound listed in Table 3-2 was added thereto so that the final concentration was obtained. After incubation at 37° C. for 5 minutes, 50 μg of arachidonic acid and 25 μM of calcium ionophore (A23187) were added thereto, followed by incubating at 37° C. for 15 minutes. The extraction was carried out after the reaction was completed. The product was determined by reversed phase HPLC.

lipoxygenase [3] = test: Activity of inhibiting lipoxygenase production in human whole blood (Table 2-1); settings: final 10^-4 M, 37° C., 15 min, 100 µM; for Inhibitory ratio (%) 12-HETE: A23187 25 μM; for Inhibitory ratio (%) 5-HETE / Inhibitory ratio (%) LTB4: A23187 25 μm
Procedure: Evaluation of activity of inhibiting lipoxycenase production in human whole blood Into 2 ml of a heparin-treated vein blood of a healthy person without administration of a drug was added 2 μl of the DMSO solution of each compound listed in Table 2-1 (final 10^-4 M). After treatment at 37° C. for 5 minutes, 10 μl of a DMSO solution of A23187 was added (final 25 μm) to carry out the treatment at 37° C. for 15 minutes, followed by ice-cooling. As the internal standard substance for quantitation, 10 μl of a DMSO solution of 100 ng of 15-HETE was added, and then 0.8 ml of acetonitrile was added and the precipitates formed were removed by centrifugation. LTB4, 5-HETE, 12-HETE in the supernatant were separated and quantitated. The results are shown in Table 2-1 as a production inhibitory ratio of LTB4.

lipoxygenase [4] = target: T2, lipoxygenase (Homo sapiens, UniProt P09917); test: Activity of inhibiting lipoxygenase production in human whole blood (Table 3-1); settings: 0.25 h, final 10^-5 M, A23187 25 μM, 37° C.
T2 construct: heparin-treated vein blood of a healthy person without administration of a drug; from tissue; host or cells: human heparinised venous whole blood
T2 sequence (P09917 1-674): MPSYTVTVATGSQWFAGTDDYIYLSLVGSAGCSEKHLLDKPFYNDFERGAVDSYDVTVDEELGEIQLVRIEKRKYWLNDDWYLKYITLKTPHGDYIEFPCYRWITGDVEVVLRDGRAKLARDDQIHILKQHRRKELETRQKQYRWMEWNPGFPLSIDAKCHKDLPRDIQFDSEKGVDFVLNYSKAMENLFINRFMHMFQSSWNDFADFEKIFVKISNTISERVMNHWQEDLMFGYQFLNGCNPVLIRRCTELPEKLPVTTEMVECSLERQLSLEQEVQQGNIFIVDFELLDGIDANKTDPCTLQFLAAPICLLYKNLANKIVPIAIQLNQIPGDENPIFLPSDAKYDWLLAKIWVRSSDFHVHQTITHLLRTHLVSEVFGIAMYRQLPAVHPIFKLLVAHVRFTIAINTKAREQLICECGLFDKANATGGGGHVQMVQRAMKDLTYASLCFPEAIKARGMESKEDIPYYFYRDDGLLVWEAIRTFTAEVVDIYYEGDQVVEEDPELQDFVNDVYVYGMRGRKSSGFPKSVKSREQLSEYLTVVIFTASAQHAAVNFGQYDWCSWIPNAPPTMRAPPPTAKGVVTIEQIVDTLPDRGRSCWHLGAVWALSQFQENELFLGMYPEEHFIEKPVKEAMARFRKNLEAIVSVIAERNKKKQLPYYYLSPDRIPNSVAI
Procedure: Evaluation of activity of inhibiting lipoxygenase production in human whole blood
Into 1 ml of a heparin-treated vein blood of a healthy person without administration of a drug was added 1 μl of the DMSO solution of each compound listed in Table 3-1 (final 10^-5 M). After treatment at 37° C. for 5 minutes, 5 μl of a DMSO solution of calcium ionophone (A23187, 25 μM) was added to carry out the treatment at 37° C. for 15 minutes, followed by ice-cooling. As the internal standard substance for quantitation, 10 μl of a DMSO solution of 100 ng of 15-HETE was added, then 0.8 ml of acetonitrile was added, and the precipitates formed were removed by centrifugation. LTB4, 5-HETE in the supernatant were separated and quantitated, and the results are shown as the production inhibitory ratio of LTB4, etc. in Table 3-1.

[5] = footnote: results shown in × 10^-4 (only this compound)
[6] = read-out: Inhibitory ratio (%) 5-HETE
[7] = read-out: Inhibitory ratio (%) LTB4

Compound: COC(=O)CCCC(Sc1ccc2cc(OC)ccc2c1)C(C)=NO (stereo not drawn) [Example 1-4]
Inhibitory ratio (%) 5-HETE (lipoxygenase [1]; [5]): 43%
Inhibitory ratio (%) 12-HETE (lipoxygenase [1]; [5]): 29%

Compound: CON=C(CSc1ccc2cc(OC)ccc2c1)CC(=O)OC [Example 1-6, methyl 4-(6-methoxy-2-naphthylthio)-3-methoxyiminobutanoate]
Inhibitory ratio (%) 5-HETE (lipoxygenase [1]; final 10^-5 M, 37° C., 10 µM): 29%
Inhibitory ratio (%) LTB4 (lipoxygenase [1]; final 10^-5 M, 37° C., 10 µM): 37%

Compound: COC(=O)CCC(CSc1ccc2cc(O)ccc2c1)=NO [Example 1-11, methyl 5-(6-hydroxy-2-naphthylthio)-4-hydroxyiminopentanoate]
Inhibitory ratio (%) 5-HETE (lipoxygenase [1]; final 10^-5 M, 37° C., 10 µM): 56%
Inhibitory ratio (%) 12-HETE (lipoxygenase [1]; final 10^-5 M, 37° C., 10 µM): 28%
Inhibitory ratio (%) LTB4 (lipoxygenase [1]; final 10^-5 M, 37° C., 10 µM): 64%

Compound: COC(=O)CCCC(=O)CSc1ccc2cc(O)ccc2c1 [Example 1-12, methyl 6-(6-hydroxy-2-naphthylthio)-5-oxohexanoate]
Inhibitory ratio (%) 5-HETE (lipoxygenase [1]; final 10^-5 M, 37° C., 10 µM): 6%
Inhibitory ratio (%) 12-HETE (lipoxygenase [1]; final 10^-5 M, 37° C., 10 µM): 17%
Inhibitory ratio (%) LTB4 (lipoxygenase [1]; final 10^-5 M, 37° C., 10 µM): 2%
inhibition at 1 µM (lipoxygenase [2]): 53%
inhibition at 0.1 µM (lipoxygenase [2]): 27%
inhibition at 0.01 µM (lipoxygenase [2]; 10^-8 M): 28%

Compound: O=C(O)CCCC(=O)CSc1ccc2cc(O)ccc2c1 [Example 1-14, 6-(6-hydroxy-2-naphthylthio)-5-oxohexanoic acid]
Inhibitory ratio (%) 5-HETE (lipoxygenase [1]; final 10^-5 M, 37° C., 10 µM): 49%
Inhibitory ratio (%) 12-HETE (lipoxygenase [1]; final 10^-5 M, 37° C., 10 µM): 20%
Inhibitory ratio (%) LTB4 (lipoxygenase [1]; final 10^-5 M, 37° C., 10 µM): 37%

Compound: COC(=O)CCCC(=O)C(=O)c1ccc2cc(O)ccc2c1 [Example 2-4, methyl 6-(6-hyerocy-2-naphthyl)-5,6-dioxohexanoate]
Inhibitory ratio (%) 12-HETE (lipoxygenase [3]): 3%
Inhibitory ratio (%) 5-HETE (lipoxygenase [3]): 81%
Inhibitory ratio (%) LTB4 (lipoxygenase [3]): 78%

Compound: COC(=O)CCCC(=NO)C(=NO)c1ccc2cc(O)ccc2c1 [Example 2-5, methyl 6-(6-hydroxy-2-naphthyl)-5,6-dihydroxyiminohexanoate]
Inhibitory ratio (%) 12-HETE (lipoxygenase [3]): 4%
Inhibitory ratio (%) 5-HETE (lipoxygenase [3]): 78%
Inhibitory ratio (%) LTB4 (lipoxygenase [3]): 93%

Compound: COC(=O)CCCC(=NO)C(=O)c1ccc2cc(O)ccc2c1 [Example 2-9, methyl 6-(6-hydroxy-2-naphthyl)-5-hydroxvimino-6-oxohexanoate]
Inhibitory ratio (%) 12-HETE (lipoxygenase [3]): 27%
Inhibitory ratio (%) 5-HETE (lipoxygenase [3]): 77%
Inhibitory ratio (%) LTB4 (lipoxygenase [3]): 66%

Next, values leading:

inhibition at 10 µM (lipoxygenase [4]; [6]): 80%
Compound: COC(=O)CCCC(=O)N(O)c1ccc2ccccc2c1O [Example 3-2, N-hydroxy-N-(1-hydroxy-2-naphthyl)-4-methoxycarbonylbutanamide]

inhibition at 1 µM (lipoxygenase [2]): 35%
inhibition at 0.1 µM (lipoxygenase [2]): 20%
Compound: O=C(O)CCCC(=O)N(O)c1ccc2ccccc2c1O [Example 3-3, N-hydroxy-N-(1-hydroxy-2-naphthyl)-4-carboxybutanamide]

inhibition at 10 µM (lipoxygenase [4]; [6]): 38%
inhibition at 10 µM (lipoxygenase [4]; [7]): 45%
Compound: COC(=O)CCCCC(=O)N(O)c1ccc2ccccc2c1O [Example 3-4, N-hydroxy-N-(1-hydroxy-2-naphthyl)-5-methoxycarbonylpentanamide]

inhibition at 10 µM (lipoxygenase [4]; [6]): 40%
inhibition at 10 µM (lipoxygenase [4]; [7]): 39%
Compound: COC(=O)CCCCCC(=O)N(O)c1ccc2ccccc2c1O [Example 3-5, N-hydroxy-N-(1-hydroxy-2-naphthyl)-6-methoxycarbonylhexanamide]

inhibition at 10 µM (lipoxygenase [4]; [6]): 18%
inhibition at 10 µM (lipoxygenase [4]; [7]): 24%
Compound: COC(=O)COCC(=O)N(O)c1ccc2ccccc2c1O [Example 3-6, N-hydroxy-N-(1-hydroxy-2-naphthyl)-4-methoxycarbonyl-3-oxabutanamide]

inhibition at 10 µM (lipoxygenase [4]; [6]): 59%
inhibition at 10 µM (lipoxygenase [4]; [7]): 71%
Compound: COC(=O)CCC(=O)N(O)Cc1ccc2ccccc2c1 [Example 3-7, N-hydroxy-N-(2-naphthylmethyl)-3-methoxycarbonylpropionamide]

inhibition at 10 µM (lipoxygenase [4]; [6]): 59%
inhibition at 10 µM (lipoxygenase [4]; [7]): 60%
Compound: COC(=O)CCCC(=O)N(O)Cc1ccc2ccccc2c1 [Example 3-8, N-hydroxy-N-(2-naphthylmethyl)-4methoxycarbonylbutanamide]

inhibition at 10 µM (lipoxygenase [4]; [6]): 27%
inhibition at 10 µM (lipoxygenase [4]; [7]): 40%
Compound: COC(=O)CCCC(=O)N(O)Cc1ccc2ccccc2c1OC [Example 3-9, N-hydroxy-N-(1-methoxy-2-naphthylmethyl)-4-methoxycarbonylbutanamide]

inhibition at 10 µM (lipoxygenase [4]; [6]): 45%
inhibition at 10 µM (lipoxygenase [4]; [7]): 63%
Compound: COC(=O)c1cccc(C(=O)N(O)c2ccc3ccccc3c2O)c1 [Example 3-10, N-hydroxy-N-(1-hydroxy-2-naphthyl)-3-methoxycarbonylbenzamide]
